ChEMBL document CHEMBL5500384, “New synergistic benzoquinone scaffolds as inhibitors of mycobacterial cytochrome bc1 complex to treat multi-drug resistant tuberculosis” (Eur J Med Chem, 2024)

Experiments:
[1] = test system: Mycolicibacterium smegmatis; assay: Antibacterial activity against Mycobacterium smegmatis ATCC 14468 assessed as log2 fold change in histidine kinase expression at 3 ug/ml incubated for 12 hrs by mass spectrometric analysis; type: functional; settings: dose 3 µg/ml
[2] = test system: Mycolicibacterium smegmatis; assay: Antibacterial activity against Mycobacterium smegmatis ATCC 14468 assessed as log2 fold change in dihydroorotate dehydrogenase expression at 3 ug/ml incubated for 12 hrs by mass spectrometric analysis; type: functional; settings: dose 3 µg/ml
[3] = Cytotoxicity against african green monkey Vero cells assessed as cell viability at 6.25 ug/ml by MTT assay; type: toxicity, cell-based; settings: chlorocebus sabaeus, at 6.25 µg/mL, read-out: Activity
[4] = test system: Mycolicibacterium smegmatis; assay: Antibacterial activity against Mycobacterium smegmatis ATCC 14468 assessed as log2 fold change in TnpC protein expression at 3 ug/ml incubated for 12 hrs by mass spectrometric analysis; type: functional; settings: dose 3 µg/ml
[5] = test system: Mycolicibacterium smegmatis; assay: Antibacterial activity against Mycobacterium smegmatis ATCC 14468 assessed as log2 fold change in citrate transporter expression at 3 ug/ml incubated for 12 hrs by mass spectrometric analysis; type: functional; settings: dose 3 µg/ml
[6] = test system: Mycolicibacterium smegmatis; assay: Antibacterial activity against Mycobacterium smegmatis ATCC 14468 assessed as log2 fold change in signal transduction histidine kinase expression at 3 ug/ml incubated for 12 hrs by mass spectrometric analysis; type: functional; settings: dose 3 µg/ml
[7] = Acute toxicity in Albino mouse assessed as change in ESR at 50 to 2000 mg/kg, po measured after 14 days (reference value: 10 millimeter); type: organism-based; settings: in vivo, 336 h, dose 50-2000 mg/kg, time 14 day
[8] = Hepatotoxicity in Albino mouse assessed as change in portal vein at 50 to 2000 mg/kg, po measured after 14 days; type: toxicity, organism-based; settings: in vivo, 336 h, dose 50-2000 mg/kg, time 14 day
[9] = Renal toxicity in Albino mouse assessed as change in proximal convoluted tubules at 50 to 2000 mg/kg, po measured after 14 days; type: organism-based; settings: in vivo, 336 h, dose 50-2000 mg/kg, time 14 day
[10] = test system: Mycolicibacterium smegmatis; assay: Antibacterial activity against Mycobacterium smegmatis ATCC 14468 assessed as log2 fold change in cytochrome P450 107B1 expression at 3 ug/ml incubated for 12 hrs by mass spectrometric analysis; type: functional; settings: dose 3 µg/ml
[11] = Pulmonary toxicity in Albino mouse assessed as change in alveolar sacs at 50 to 2000 mg/kg, po measured after 14 days; type: organism-based; settings: in vivo, 336 h, dose 50-2000 mg/kg, time 14 day
[12] = test system: Mycolicibacterium smegmatis; assay: Antibacterial activity against Mycobacterium smegmatis ATCC 14468 assessed as log2 fold change in l-Glutathione oxidized metabolite level by mass spectrometry analysis; type: functional
[13] = test system: Mycolicibacterium smegmatis; assay: Antibacterial activity against Mycobacterium smegmatis ATCC 14468 assessed as reduction in bacterial growth at 12 ug/ml incubated for 48 hrs by spectrometry analysis; type: functional; design: scale not given: the % may be the effect or the level left; settings: dose 12 µg/ml
[14] = test system: Mycolicibacterium smegmatis; assay: Antibacterial activity against Mycobacterium smegmatis ATCC 14468 assessed as log2 fold change in PknH_C domain-containing protein expression at 3 ug/ml incubated for 12 hrs by mass spectrometric analysis; type: functional; settings: dose 3 µg/ml
[15] = Pulmonary toxicity in Albino mouse assessed as change in squamous pneumocytes at 50 to 2000 mg/kg, po measured after 14 days; type: organism-based; settings: in vivo, 336 h, dose 50-2000 mg/kg, time 14 day
[16] = Renal toxicity in Albino mouse assessed as change in renal tubules at 50 to 2000 mg/kg, po measured after 14 days; type: organism-based; settings: in vivo, 336 h, dose 50-2000 mg/kg, time 14 day
[17] = Cytotoxicity against african green monkey Vero cells assessed as cell viability at 100 ug/ml by MTT assay; type: toxicity, cell-based; settings: chlorocebus sabaeus, at 100 µg/mL, read-out: Activity
[18] = Acute toxicity in Albino mouse assessed as change in SGOT count at 50 to 2000 mg/kg, po measured after 14 days (reference value: 42 IU/L); type: organism-based; settings: in vivo, 336 h, dose 50-2000 mg/kg, time 14 day
[19] = Acute toxicity in Albino mouse assessed as change in eosinophils at 50 to 2000 mg/kg, po measured after 14 days (reference value: 3%); type: organism-based; settings: in vivo, 336 h, dose 50-2000 mg/kg, time 14 day
[20] = Cytotoxicity against african green monkey Vero cells assessed as cell viability at 25 ug/ml by MTT assay; type: toxicity, cell-based; settings: chlorocebus sabaeus, at 25 µg/mL, read-out: Activity
[21] = Hepatotoxicity in Albino mouse assessed as change in bile duct at 50 to 2000 mg/kg, po measured after 14 days; type: toxicity, organism-based, Liver; settings: in vivo, 336 h, dose 50-2000 mg/kg, time 14 day
[22] = test system: Mycolicibacterium smegmatis; assay: Antibacterial activity against Mycobacterium smegmatis ATCC 14468 assessed as log2 fold change in l-tyrosine metabolite level by mass spectrometry analysis; type: functional
[23] = Acute toxicity in Albino mouse assessed as change in SGPT count at 50 to 2000 mg/kg, po measured after 14 days (reference value: 52 IU/L); type: organism-based; settings: in vivo, 336 h, dose 50-2000 mg/kg, time 14 day
[24] = test system: Mycolicibacterium smegmatis; assay: Antibacterial activity against Mycobacterium smegmatis ATCC 14468 assessed as log2 fold change in l-Glutamic acid metabolite level by mass spectrometry analysis; type: functional
[25] = Pulmonary toxicity in Albino mouse assessed as change in bronchi structure at 50 to 2000 mg/kg, po measured after 14 days; type: organism-based; settings: in vivo, 336 h, dose 50-2000 mg/kg, time 14 day
[26] = Pulmonary toxicity in Albino mouse assessed as appearance of goblet cells at 50 to 2000 mg/kg, po measured after 14 days; type: organism-based; settings: in vivo, 336 h, dose 50-2000 mg/kg, time 14 day
[27] = test system: Mycolicibacterium smegmatis; assay: Antibacterial activity against Mycobacterium smegmatis ATCC 14468 assessed as log2 fold change in TrkA expression at 3 ug/ml incubated for 12 hrs by mass spectrometric analysis; type: functional; settings: dose 3 µg/ml
[28] = Acute toxicity in Albino mouse assessed as change in neutrophils at 50 to 2000 mg/kg, po measured after 14 days (reference value: 75%); type: organism-based; settings: in vivo, 336 h, dose 50-2000 mg/kg, time 14 day
[29] = Acute toxicity in Albino mouse assessed as change in serum urea level at 50 to 2000 mg/kg, po measured after 14 days (reference value: 46 mg/dl); type: organism-based; settings: in vivo, 336 h, dose 50-2000 mg/kg, time 14 day
[30] = Renal toxicity in Albino mouse assessed as change in distal convoluted tubules at 50 to 2000 mg/kg, po measured after 14 days; type: organism-based; settings: in vivo, 336 h, dose 50-2000 mg/kg, time 14 day
[31] = Acute toxicity in Albino mouse assessed as change in monocytes at 50 to 2000 mg/kg, po measured after 14 days (reference value: 1%); type: organism-based; settings: in vivo, 336 h, dose 50-2000 mg/kg, time 14 day
[32] = test system: Mycolicibacterium smegmatis; assay: Antibacterial activity against Mycobacterium smegmatis ATCC 14468 assessed as log2 fold change in NADH-quinone oxidoreductase subunit C expression at 3 ug/ml incubated for 12 hrs by mass spectrometric analysis; type: functional; settings: dose 3 µg/ml
[33] = test system: Mycolicibacterium smegmatis; assay: Antibacterial activity against Mycobacterium smegmatis ATCC 14468 assessed as log2 fold change in MscS expression at 3 ug/ml incubated for 12 hrs by mass spectrometric analysis; type: functional; settings: dose 3 µg/ml
[34] = Renal toxicity in Albino mouse assessed as extravasation of RBC at 50 to 2000 mg/kg, po measured after 14 days; type: organism-based, Erythrocyte; settings: in vivo, 336 h, dose 50-2000 mg/kg, time 14 day
[35] = Cytotoxicity against african green monkey Vero cells assessed as cell viability at 12.5 ug/ml by MTT assay; type: toxicity, cell-based; settings: chlorocebus sabaeus, at 12.5 µg/mL, read-out: Activity
[36] = test system: Mycolicibacterium smegmatis; assay: Antibacterial activity against Mycobacterium smegmatis ATCC 14468 assessed as log2 fold change in N-Acetyl-l-glutamic acid metabolite level by mass spectrometry analysis; type: functional
[37] = test system: Mycolicibacterium smegmatis; assay: Antibacterial activity against Mycobacterium smegmatis ATCC 14468 assessed as log2 fold change in cytochrome bc1 complex Rieske-iron-sulfur subunit expression at 3 ug/ml incubated for 12 hrs by mass spectrometric analysis; type: functional; settings: dose 3 µg/ml
[38] = test system: Mycolicibacterium smegmatis; assay: Antibacterial activity against Mycobacterium smegmatis ATCC 14468 assessed as log2 fold change in 24-methylenecholesterol metabolite level by mass spectrometry analysis; type: functional

CN(C)c1ccc(C2C(Cl)C(=O)N2C2=C(Cl)C(=O)c3ccccc3C2=O)cc1 (stereo not drawn)
log2FC [1]: -6.64
log2FC [2]: -1.47
viability at 6.25 ug/ml [3]: 100%
log2FC [4]: -6.64
log2FC [5]: -1.02
log2FC [6]: -6.64
Activity [7]: 16 millimeter/hr
Activity [8]: Non-Toxic
Activity [9]: Non-Toxic
log2FC [10]: 6.64
Activity [11]: Non-Toxic
log2FC [12]: -1.8
Activity [13]: 80%
log2FC [14]: -6.64
Activity [15]: Non-Toxic
Activity [16]: Non-Toxic
viability at 100 ug/ml [17]: 10.2%
Activity [18]: 109 IU/L
Activity [19]: 5%
viability at 25 ug/ml [20]: 40.9%
Activity [21]: Non-Toxic
log2FC [22]: -1.13
Activity [23]: 73 IU/L
log2FC [24]: -0.85
Activity [25]: Non-Toxic
Activity [26]: Non-Toxic
log2FC [27]: -6.64
Activity [28]: 60%
Activity [29]: 48 mg/dL
Activity [30]: Non-Toxic
Activity [31]: 1%
log2FC [32]: -1.41
log2FC [33]: -3.03
Activity [34]: Non-Toxic
viability at 12.5 ug/ml [35]: 79.5%
log2FC [36]: -1.04
log2FC [37]: 1.61
log2FC [38]: 0.69
